Results on twelve compounds are retold here after PubChem BioAssay AID330 (DTP/NCI, 2004).

For the test, the system named is P388 leukemia ip, CD2F1 mice, survival T/C. The test can be described thus: NCI In Vivo Anticancer Drug Screen. Data for tumor model P388 Leukemia (intraperitoneal) in CD2F1 (CDF1) mice. The following applies: endpoint: median survival time, higher = longer survival. An outline of the steps:
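Mice carrying the transplanted tumor received test compound or vehicle. Survival was recorded in each group, and the value is the treated-group measurement divided by that of the vehicle-treated control group.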

Setting [1] is: dose: 50.0 mg/kg/injection, schedule: Q01DX009 (ip), vehicle: saline with Tween-80.
Setting [2] is: dose: 100.0 mg/kg/injection, schedule: Q01DX009 (ip), vehicle: saline with Tween-80.
The mark [3] stands for this setting: dose: 200.0 mg/kg/injection, schedule: Q01DX009 (ip), vehicle: saline with Tween-80.

Several values for one entry are separate records, joined by “and”; a condition that tells them apart may be missing. Equal values may be shown once. Toxic doses and inconclusive results are not listed.

As for `CC(=O)Nc1ccc(NN=O)cn1`, the T/C is 113 % of control (dose: 3.12 mg/kg/injection, schedule: Q01DX009 (ip), vehicle: water); 106 % of control (dose: 6.25 mg/kg/injection, schedule: Q01DX009 (ip), vehicle: water); 110 % of control and 114 % of control (dose: 12.5 mg/kg/injection, schedule: Q01DX009 (ip), vehicle: water); 116 % of control (dose: 25.0 mg/kg/injection, schedule: Q01DX009 (ip), vehicle: water).

For the compound `C[C@]12CC[C@H](OC(=O)Cc3ccc(N(CCCl)CCCl)cc3)CC1=CC[C@@H]1[C@@H]2CC[C@]2(C)C(=O)CC[C@@H]12`, the T/C is 95 % of control (dose: 16.0 mg/kg/injection, schedule: Q03HX024 (ip), vehicle: saline); 90 % of control (dose: 32.0 mg/kg/injection, schedule: Q03HX008 (ip), vehicle: saline); 100 % of control (dose: 32.0 mg/kg/injection, schedule: Q03HX016 (ip), vehicle: saline); 90 % of control (dose: 32.0 mg/kg/injection, schedule: Q03HX024 (ip), vehicle: saline); 100 % of control (dose: 64.0 mg/kg/injection, schedule: Q01DX009 (ip), vehicle: saline); 104 % of control (dose: 64.0 mg/kg/injection, schedule: Q01DX009 (sc), vehicle: saline). The T/C was 109 % of control (dose: 64.0 mg/kg/injection, schedule: Q03HX008 (ip), vehicle: saline); 109 % of control (dose: 64.0 mg/kg/injection, schedule: Q03HX016 (ip), vehicle: saline); 109 % of control (dose: 64.0 mg/kg/injection, schedule: Q03HX024 (ip), vehicle: saline); 95 % of control (dose: 128.0 mg/kg/injection, schedule: Q01DX009 (ip), vehicle: saline); 109 % of control (dose: 128.0 mg/kg/injection, schedule: Q01DX009 (sc), vehicle: saline); 168 % of control (dose: 128.0 mg/kg/injection, schedule: Q03HX008 (ip), vehicle: saline). Moreover, the T/C is 154 % of control (dose: 128.0 mg/kg/injection, schedule: Q03HX016 (ip), vehicle: saline); 100 % of control (dose: 128.0 mg/kg/injection, schedule: Q03HX024 (ip), vehicle: saline); 100 % of control (dose: 128.0 mg/kg/injection, schedule: Q04DX003 (ip), vehicle: saline); 150 % of control (dose: 200.0 mg/kg/injection, schedule: Q04DX003 (ip), vehicle: saline with Tween-80); 100 % of control (dose: 256.0 mg/kg/injection, schedule: Q01DX001 (ip), vehicle: saline); 100 % of control (dose: 256.0 mg/kg/injection, schedule: Q01DX001 (sc), vehicle: saline). Besides, the T/C by setting is: (dose: 256.0 mg/kg/injection, schedule: Q01DX009 (oral), vehicle: saline) 109 % of control; (dose: 256.0 mg/kg/injection, schedule: Q01DX009 (sc), vehicle: saline) 118 % of control; (dose: 256.0 mg/kg/injection, schedule: Q03HX008 (ip), vehicle: saline) 122 % of control; (dose: 256.0 mg/kg/injection, schedule: Q04DX003 (ip), vehicle: saline) 100 % of control; (dose: 256.0 mg/kg/injection, schedule: Q08DX002 (ip), vehicle: saline) 100 % of control; (dose: 264.0 mg/kg/injection, schedule: Q04DX003 (ip), vehicle: saline with Tween-80) 179 % of control. In addition, the T/C reads like this: (dose: 400.0 mg/kg/injection, schedule: Q04DX003 (ip), vehicle: saline with Tween-80) 183 % of control and 200 % of control; (dose: 512.0 mg/kg/injection, schedule: Q01DX001 (ip), vehicle: saline) 104 % of control; (dose: 512.0 mg/kg/injection, schedule: Q01DX001 (sc), vehicle: saline) 104 % of control; (dose: 512.0 mg/kg/injection, schedule: Q01DX009 (ip), vehicle: saline) 150 % of control; (dose: 512.0 mg/kg/injection, schedule: Q01DX009 (oral), vehicle: saline) 113 % of control; (dose: 512.0 mg/kg/injection, schedule: Q04DX003 (ip), vehicle: saline) 122 % of control. The T/C (dose: 512.0 mg/kg/injection, schedule: Q08DX002 (ip), vehicle: saline) was 118 % of control; the T/C (dose: 600.0 mg/kg/injection, schedule: Q04DX003 (ip), vehicle: saline with Tween-80) was 112 % of control; the T/C (dose: 1024.0 mg/kg/injection, schedule: Q01DX001 (ip), vehicle: saline) was 118 % of control; the T/C (dose: 1024.0 mg/kg/injection, schedule: Q01DX001 (sc), vehicle: saline) is 118 % of control; the T/C (dose: 1024.0 mg/kg/injection, schedule: Q01DX009 (oral), vehicle: saline) is 109 % of control; the T/C (dose: 1024.0 mg/kg/injection, schedule: Q04DX003 (ip), vehicle: saline) is 163 % of control. For the same compound, the T/C is 159 % of control (dose: 1024.0 mg/kg/injection, schedule: Q08DX002 (ip), vehicle: saline); 109 % of control (dose: 2048.0 mg/kg/injection, schedule: Q01DX001 (ip), vehicle: saline); 118 % of control (dose: 2048.0 mg/kg/injection, schedule: Q01DX009 (oral), vehicle: saline); 90 % of control (dose: 2048.0 mg/kg/injection, schedule: Q08DX002 (ip), vehicle: saline).

On to `Cc1ccc(NCCN(C)C)c2c(=O)c3cccc(O)c3sc12`, for which the T/C under setting [1] was 100 % of control, the T/C under setting [2] is 95 % of control and the T/C under setting [3] is 97 % of control.

With `CC(/C=N\NC(N)=O)=N/N=C(N)N`, the T/C (dose: 100.0 mg/kg/injection, schedule: Q04DX003 (ip), vehicle: saline) is 94 % of control; the T/C (dose: 200.0 mg/kg/injection, schedule: Q04DX003 (ip), vehicle: saline) was 94 % of control; the T/C (dose: 400.0 mg/kg/injection, schedule: Q04DX003 (ip), vehicle: saline) was 92 % of control.

As for `C=C(C)C(=O)N(C)C(C)C(=O)OC1CC(=O)N(C)c2cc(cc(OC)c2Cl)C(OC)C(C)=C/C=C/C(OC)C2(O)CC(OC(=O)N2)C(C)C2OC12C` (stereo not given), the T/C (dose: 8.0 micrograms/kg/injection, schedule: Q01DX009 (ip), vehicle: saline) was 172 % of control.

Regarding `Cn1c(NCCN2CCCCC2)c(C(=O)/C=C/c2ccccc2)c(=O)n(C)c1=O`, the T/C by setting is: (dose: 50.0 mg/kg/injection, schedule: Q01DX005 (ip), vehicle: Klucel (hydroxypropylcellulose) (HPC)) 104 % of control; (dose: 100.0 mg/kg/injection, schedule: Q01DX005 (ip), vehicle: Klucel (hydroxypropylcellulose) (HPC)) 107 % of control; (dose: 200.0 mg/kg/injection, schedule: Q01DX005 (ip), vehicle: Klucel (hydroxypropylcellulose) (HPC)) 103 % of control.

With `C/C(=N\NC(=S)N1CCN(c2ccccn2)CC1)c1cccc(C)n1`, the T/C is 101 % of control and 107 % of control (dose: 6.25 mg/kg/injection, schedule: Q01DX005 (ip), vehicle: saline with Tween-80); 103 % of control and 124 % of control (dose: 12.5 mg/kg/injection, schedule: Q01DX005 (ip), vehicle: saline with Tween-80); 118 % of control (dose: 25.0 mg/kg/injection, schedule: Q01DX005 (ip), vehicle: saline with Tween-80).

Turning to `CN1CCC/C1=C\C(=O)c1ccncc1`, the T/C is 96 % of control (dose: 50.0 mg/kg/injection, schedule: Q01DX005 (ip), vehicle: saline); 112 % of control (dose: 100.0 mg/kg/injection, schedule: Q01DX005 (ip), vehicle: saline); 124 % of control (dose: 200.0 mg/kg/injection, schedule: Q01DX005 (ip), vehicle: saline).

Consider `CCCCCNc1ncnc2[nH]ncc12`, for which the T/C (dose: 50.0 mg/kg/injection, schedule: Q01DX005 (ip), vehicle: saline with Tween-80) is 96 % of control and the T/C (dose: 100.0 mg/kg/injection, schedule: Q01DX005 (ip), vehicle: saline with Tween-80) is 102 % of control.

On to `CNS(=O)(=O)c1c([O-])on[n+]1-c1ccccc1`, for which the T/C (dose: 60.0 mg/kg/injection, schedule: Q01DX005 (ip), vehicle: Klucel (hydroxypropylcellulose) (HPC)) was 99 % of control; the T/C (dose: 120.0 mg/kg/injection, schedule: Q01DX005 (ip), vehicle: Klucel (hydroxypropylcellulose) (HPC)) was 104 % of control; the T/C (dose: 240.0 mg/kg/injection, schedule: Q01DX005 (ip), vehicle: Klucel (hydroxypropylcellulose) (HPC)) is 86 % of control.

Turning to `CCC(C)C[c-]1[c-][c-][c-][c-]1.CCC(C)C[c-]1[c-][c-][c-][c-]1.[Cl][Zr][Cl]` (stereo not given), the T/C runs as follows: under setting [1], 90 % of control; under setting [2], 88 % of control.

As to `CCOc1ccccc1C=C1c2ccccc2C(=O)c2ccccc21`, the T/C was 96 % of control under setting [1], 92 % of control under setting [2] and 91 % of control under setting [3].
